Where two headings read alike, the source gives them in different places. Where a SMILES comes first, the peptide text is derived from it. Where no end group is shown, it is not given here. [ ]: non-standard residue; d: D form. pY = N[C@@H](Cc1ccc(OP(=O)(O)O)cc1)C(=O)O
Assays:
Src SH2 domain = target: T1, Src SH2 domain (Homo sapiens, UniProt P12931); assay: fluorescence polarization (FP) competition binding assay against fluorescent probe EPQ(pY)EEIPIYL(K-Flc); conditions: for IC50: concentration that reduces binding of fluorescein-labeled probe EPQ(pY)EEIPIYL(K-Flc) to the Src SH2 domain by 50%, 350 nM GST-Src SH2, 50 nM probe, 25°C, pH 7.3
T1 construct: 350 nM of GST-Src SH2 domain fusion protein
Description: The relative binding affinity of phosphopeptides to the Src SH2 domain was tested by competition against a fluorescent probe using a fluorescence polarization (FP) binding assay, [17], [18]. FP was measured at 25°C in a disposable glass tube, using a Beacon 2000 luminescence spectrometer equipped with an FP apparatus. The excitation and emission wavelengths were set at 485 and 535 nm, respectively. The fluorescent probe was the fluorescein (Flc)-labeled phosphopeptide EPQ(pY)EEIPIYL(K-Flc). For the competition assay, final concentrations of 350 nM of GST-Src SH2 domain fusion protein, 50 nM fluorescent probe, HEPES buffer (20 mM, pH 7.3, 100 mM NaCl, 2 mM DTT, 0.1% BSA) and various concentrations (0–100 µM) of each competitor peptide were used. A blank control (with the Src SH2 domain but without a peptide) and a background control (without both the Src SH2 domain and the peptide) were used. The inhibition percentage IP of fluorescent probe binding to the Src SH2 domain by the sample was calculated by the following equation: [drawing 1] where FP0 is the fluorescent polarization value of the blank control, FP is the fluorescent polarization value of the sample (peptide), and FPb is the fluorescent polarization value of the background control. The inhibition percentages of the various concentrations of the assayed peptides were plotted, and the IC50 value (the concentration that inhibits the binding of the fluorescent probe to the Src SH2 domain by 50%) was calculated.

Src SH2 = conditions: cited from earlier work

T1 sequence (P12931 151-248 limits assumed): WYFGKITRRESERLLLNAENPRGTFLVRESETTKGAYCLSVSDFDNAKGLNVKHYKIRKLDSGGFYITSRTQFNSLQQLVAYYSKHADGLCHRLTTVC

Compound	IC50 (Src SH2 domain)	further results
N[C@@H](Cc1ccc(OP(=O)(O)O)cc1)C(=O)N[C@@H](CCC(=O)O)C(=O)N[C@@H](CCC(=O)O)C(=O)NCC(=O)O [pYEEG] (H-[pY]EEG-OH)	5700 ± 2100 nM	–
CC[C@H](C)[C@H](NC(=O)[C@H](CC(N)=O)NC(=O)[C@H](CCC(=O)O)NC(=O)[C@@H](N)Cc1ccc(OP(=O)(O)O)cc1)C(=O)O [pYENI, pTyr-Glu-Asn-Ile] (H-[pY]ENI-OH)	1000 ± 100 nM	–
CC(C)[C@H](NC(=O)[C@H](CC(N)=O)NC(=O)[C@H](CCC(=O)O)NC(=O)[C@@H](N)Cc1ccc(OP(=O)(O)O)cc1)C(=O)O [pYENV] (H-[pY]ENV-OH)	2100 ± 700 nM	–
CC(C)[C@H](NC(=O)[C@H](CC(N)=O)NC(=O)[C@@H](NC(=O)[C@@H](N)Cc1ccc(OP(=O)(O)O)cc1)C(C)C)C(=O)O [pYVNV, pTyr-Val-Asn-Val-Ala]	–	est. ΔG (Src SH2 domain; estimated binding free energy from FP IC50): -29.1 kJ/mol
pTyr-Glu-Glu-Ile-Pro ([pY]EEIP)	–	Kd (Src SH2; complex of crystal structure 1SPS, read-out: affinity of the high-affinity complex with Src SH2): 80 to 200 nM
pTyr-Val-Pro-Met-Leu ([pY]VPML) [phosphopeptide of the less specific Src SH2 crystal structure 1SHA]	–	Kd (Src SH2; complex of crystal structure 1SHA, read-out: Kd): 5500 nM

From paper PMC2888578, “Conformational Determinants of Phosphotyrosine Peptides Complexed with the Src SH2 Domain” (PLoS ONE, 2010)
